“Also recorded” adds a separate entry of the source.

Data set [1] deals with isoflurane-anesthetized rats under surgery. Description: Renal response to drug given after start of surgery and isoflurane anesthesia. It is filed as in vivo, Sprague-Dawley rat.
Data set [2] concerns rats during surgery under isoflurane anesthesia. Further details: species or system Sprague-Dawley rat. To be noted: rat, in vivo.
Data set [3] concerns conscious rats. The experiment in a line: E-2078 effect on urine flow and sodium excretion in conscious rats (Salas et al.). It is filed as in vivo, rat. To be noted: 50 μg i.v., after 15-30 minutes.
In data set [4] the test system is conscious rats. Particulars: 50 μg i.v., cited from earlier work.
Data set [5] has as its system rats anesthetized with pentobarbital. To be noted: 50 μg i.v.; cited from earlier work.
The test system of data set [6] is conscious humans. To be noted: cited from earlier work.
In data set [7] the test system is human patients during general anesthesia and surgery. To be noted: administered 90 minutes before anesthesia; cited from earlier work.
The mark [8] stands for this setting: intravenous bolus injection during isoflurane anesthesia and surgery.
Setting [9] is: conscious healthy humans (Rimoy 1991).

As to `OC[C@@H](O)[C@@H](O)[C@H](O)[C@H](O)CO` [mannitol], in data set [1] (setting [8]), the “course of urine flow rate after the peak” value is “not maintained and declined to the impaired levels observed before drug administration”; the urinary potassium excretion result is “increase in urinary sodium and potassium excretion”; the urinary sodium excretion result is “increase in urinary sodium and potassium excretion”; the “urine flow rate, peak” value was “up to 135 μl/min”.

With `CN1c2ccccc2C(c2ccccc2F)=NCC1CNC(=O)c1ccsc1` (single isomer, unassigned; (+)) [tifluadom, (+)-(1-methyl-2,3-thienyl-carboxyl)-aminomethyl-5-(2-fluorophenyl)H-2,3-dihydro-1,4-benzodiazepine], in data set [2], the “effect on urine flow rate during surgery and isoflurane anesthesia” value was “remained steady (time 10) and consistently increased over time (time 20-90) until a plateau was reached (time 100-120)”; the urinary potassium excretion result is recorded as “remained low”; the urinary sodium excretion result is recorded as “remained low”; the urine flow rate was determined as 20 µL/min. For the same compound, in data set [2], the urine osmolality result was “remained low”.

Consider “(N-methyl-Tyr^1,N-methyl-Arg^7-D-Leu^8)-dynorphin-A(1-8) ethylamide [E-2078]”, for which the “increase over the baseline flow rate” value in data set [3] came out at 78 µL/min. The figures for the urine flow rate in data set [4] (after 15-30 minutes) and in data set [5] were 118 ± 22 µL/min and 6.3 ± 1.0 µL/min, respectively. For the same compound, the urinary sodium excretion is reported as 1.4±0.4 μEq/min in data set [4] (at 30-45 min) and 0.3±0.1 μEq/min in data set [5].

As for `C=C1CC2(CCC(N3CCCC3)C(N(C)C(=O)Cc3ccc(Cl)c(Cl)c3)C2)OC1=O` (stereo not shown) [U-62,066E, 3,4-dichloro-N-methyl-N-(3-methylene-2-oxo-8-(1-pyrrolidinyl)-1-oxaspiro(4,5)dec-7-yl)-benzeneacetamide], in data set [2], the urinary potassium excretion entry was “gradual increase; also recorded: significant and steady increase toward a new plateau level”; the urinary sodium excretion entry is recorded as “remained low throughout the duration of the experiment”; the urine flow rate entry is given as “remained elevated throughout the 6 hours of the study”. For the same compound, the “central nervous system effects” value in data set [6] (3.2 μg/kg dose) was “sedation, significant dysphoria, and no significant euphoria”. For the same compound, in data set [6] (5 μg/kg intramuscular), the diuretic response entry is “pronounced diuretic response”. In data set [6] (2 to 6 μg/kg intramuscular), the “sodium, potassium, or chloride excretion” value is listed as “without increases in sodium, potassium, or chloride excretion” and the water diuresis result was “induced water diuresis”. In addition, in data set [6] (setting [9]), the urine osmolality result is given as “decreased urine osmolality” and the urine output result was “significantly increased urine output”. The “diuretic potency relative to U-50,488H” value in data set [6] (in vivo) was “about twice as potent a diuretic as U-50,488H”.

On to `NS(=O)(=O)c1cc(C(=O)O)c(NCc2ccco2)cc1Cl` [furosemide], for which the “effect on urine flow rate” value in data set [1] (continuous intravenous infusion after start of surgery and isoflurane (U-50,488H 100 μg/kg/min)) is on record as “returned to the impaired pre-drug levels”. Further, the “urine flow rate, peak” value in data set [1] (continuous intravenous infusion after start of surgery and isoflurane (U-50,488H 100 μg/kg/min), saline infusion 55 μl/min) is “about 200 μl/min”. In data set [1] (setting [8]), the “course of urine flow rate after the peak” value was “declined rapidly” and the “urine flow rate, peak” value is given as “about 300 μl/min”.

On to `Clc1cccc(Cl)c1N=C1NCCN1` [clonidine], for which, in data set [7], the diuresis result was “significant diuresis during surgery”; the “losses of sodium and potassium” value was “substantial losses of sodium and potassium”; the “mean arterial pressure and heart rate” value was “substantial decrease in mean arterial pressure and heart rate”.

Source of the values: patent US6468971B1, “Maintaining kidney function during surgery or trauma” (Board of Supervisors of Louisiana State University and …, priority 1998, dated 2002).
